Measurements published in paper PMC9695592, “Phenotypic Evaluation of Nucleoside Analogues against Trypanosoma cruzi Infection: In Vitro and In Vivo Approaches” (Molecules, 2022).
Like-named read-outs stand apart in the source and are kept apart here.

Key:
[1] = tested on: promastigotes of LmexCas9; test: Resazurin-based assay on LmexCas9 promastigotes; format: cell-based, Leishmania mexicana
Protocol: (§1) Bloodstream trypomastigotes of the Y strain (DTU II) were obtained by cardiac puncture of infected Swiss Webster mice on the parasitemia peak to perform drug sensitivity assays. Trypomastigote forms of the Tulahuen-β gal strain were collected from the supernatant of previously infected L929 cell cultures (host/parasite cell ratio 10:1). The intracellular forms T. cruzi were studied by the infection of L929 and H9C2 (2D and 3D) cell cultures infected for 48 and 24 h with trypomastigotes of Tulahuen-β gal and Y strains, respectively. The Leishmania mexicana-Cas9 T7 strain (LmexCas9) was derived from L. mexicana WT promastigotes by expression of the Streptococcus pyogenes Cas9 nuclease gene ‘Cas9′ and maintained on 32 μg/mL hygromycin [51]. This strain and the derived strains Cas9^ΔNT1 and Cas9^ΔNT1+TcrNT2 were cultured in HOMEM medium supplemented with 10% of FBS and 1% Penicillin-Streptomycin antibiotic in unvented flasks at 25 °C [52]. The Cas9^ΔNT1 strain is identical to Cas9 except that the LmexNT1.1/NT1.2 locus encoding the L. mexicana adenosine/ pyrimidine transporters was excised using Cas9 [17, 40]. Cas9^ΔNT1+TcrNT2 is the further modification of that strain by the expression of the T. cruzi nucleoside transporter 2 (TcrNT2) gene in it, using the vector pNUS-HcN [53]. Appropriate antibiotics were added for the selection and maintenance of transfectants.
(§2) The EC50 values for nucleoside analogues against Leishmania mexicana promastigotes of the Cas9, Cas9^ΔNT1 and Cas9^ΔNT1+TcrNT2 strains used a resazurin-based assay, as described. Briefly, the assays were performed in standard HOMEM medium and culture conditions, in white opaque 96-well plates. For each test compound (stored as a 40 mM stock solution in 100% DMSO at −20 °C), a doubling dilution was performed over 2 rows of the plate, keeping the last well free as no-drug control with HOMEM only (23 doubling dilutions; highest concentration 100 µM). To each well, 100 µL of HOMEM containing 2 × 10^5 cells of the appropriate L. mexicana line was added, and the plates incubated for 72 h at 25 °C, followed by the addition of 20 µL of resazurin solution and further incubation for 48 h. Fluorescence was read on a FLUOstar OPTIMA plate reader (BMG Labtech, Germany), at an excitation wavelength of 544 nm and an emission wavelength of 620 nm. The EC50 values were determined by the GraphPad Prism 8.0 software using an equation for a sigmoid curve with variable slope. Pentamidine was used as positive control, and every experiment was independently performed at least 3 times independently.

[2] = tested on: promastigotes of Cas9^ΔNT1; test: Resazurin-based assay on Cas9^ΔNT1 promastigotes; format: cell-based, Leishmania mexicana; conditions: Leishmania mexicana, read-out: Cas9^ΔNT1 EC50 (μM), promastigotes, resazurin-based assay, highest concentration 100 µM
Protocol: as §1, §2

[3] = tested on: promastigotes of Lmex^ΔNT1+TcrNT2; test: Resazurin-based assay on Cas9^ΔNT1+TcrNT2 promastigotes; format: cell-based, Leishmania mexicana; conditions: for EC50: Leishmania mexicana, read-out: Lmex^ΔNT1+TcrNT2 EC50 (μM); for Lmex^ΔNT1+TcrNT2 Sensitization (fold): ratio of the EC50 values of the Cas9^ΔNT1 and Cas9^ΔNT1+TcrNT2 strains
Protocol: as §1, §2

LmexNT1 = LmexNT1 (Leishmania mexicana, UniProt E9AQB5); test: Inhibition of [3H]-adenosine uptake by LmexNT1.1 expressed in L. mexicana promastigotes; format: biochemical
Chain of LmexNT1 (E9AQB5 entry or part of it): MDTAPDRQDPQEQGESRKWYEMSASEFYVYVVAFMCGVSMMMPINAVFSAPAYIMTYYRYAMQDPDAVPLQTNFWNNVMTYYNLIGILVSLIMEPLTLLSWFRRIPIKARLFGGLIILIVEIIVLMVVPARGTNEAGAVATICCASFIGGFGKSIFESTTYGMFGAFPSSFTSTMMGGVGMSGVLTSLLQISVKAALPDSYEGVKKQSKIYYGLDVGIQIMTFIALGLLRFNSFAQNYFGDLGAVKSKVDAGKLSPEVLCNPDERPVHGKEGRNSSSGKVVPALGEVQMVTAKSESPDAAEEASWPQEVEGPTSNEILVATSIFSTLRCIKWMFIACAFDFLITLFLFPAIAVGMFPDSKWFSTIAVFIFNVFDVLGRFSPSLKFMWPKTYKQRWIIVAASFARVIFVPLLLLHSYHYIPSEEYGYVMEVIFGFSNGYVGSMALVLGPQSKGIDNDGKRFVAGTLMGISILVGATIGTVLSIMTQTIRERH
Protocol: Figure 2 Uptake of 50 nM [^3H]-adenosine by LmexNT1.1 expressed in L. mexicana promastigotes from which both original alleles of LmexNT1.1/NT1.2 and of LmexNT2 had been deleted by CRISPR/cas9. Incubation time was 10 s, well within the linear phase of uptake. Symbols represent averages of triplicate determinations, and error bars indicate ± SEM when not shown error bars fall within the symbol. The graph shown is a single experiment in triplicate, representative of three identical, independent repeats.
Uptake of 50 nM 2,8-^3H-adenosine (American Radiolabelled Chemicals (ART0287A), 40 Ci/ mmol) was exactly measured, exactly as described. Briefly, promastigotes were washed into the standard assay buffer (AB) by centrifugation, and aliquots of 100 µL containing 10^7 parasites were incubated with the radiolabel on top of an oil layer in a microfuge tube, for exactly 5 s. The incubation was stopped by the addition of 800 µL of ice-cold 1 mM adenosine in AB and immediate centrifugation through the oil layer to separate cells from the remaining extracellular radiolabel. Cell pellets were collected in scintillation vials after flash freezing in liquid nitrogen, by cutting of the tip of the microfuge tube. The promastigotes were then solubilised in 1% SDS, and scintillation fluid was added (Scintlogic U, Lablogic), and radioactivity was quantified in a Hidex 300SL scintillation counter (Lablogic). Data was plotted using non-linear regression with an equation for a sigmoid curve with a variable slope in Prism v8 (GraphPad).

H9C2 3D cultures = test: Cardiotoxicity on H9C2 organoids (3D), PrestoBlue; format: cell-based, rat; conditions: Rattus norvegicus, H9c2, 168 h, 3D H9C2, seven days of compound incubation; 95% confidence interval in brackets; read-out: Cardiotoxic profile IC50 (µM) 3D
From the text: (§3) L929 cell lines were used to evaluate the effect of the nucleoside derivatives on the cellular viability of mammalian host cells and to assess their activity against intracellular forms of T. cruzi (Tulahuen strain expressing E. coli β-galactosidase gene, DTU VI) as reported. 2D and 3D culture systems of rat cardiomyoblast cell lines (H9C2(2-1)) were used to evaluate cardiotoxicity and to test the derivatives’ activity on intracellular forms (Y strain, DTU II). In all assays, the cell cultures were maintained at 37 °C under an atmosphere of 5% CO2.
(§4) L929 cells seeded in sterile 96-well microtiter plates were exposed or not to increasing concentrations (up to 200 µM) of the compounds. After seven days of incubation, the cell growth of treated cultures was compared to untreated control cells (100% cell growth). Cellular viability was assessed through AlamarBlue® (resazurin sodium salt) colorimetric assay, and the results were expressed as % reduction in cell growth/viability compared to untreated control, and an IC50 value determined. For the assays using H9C2 cultures, 25 × 10^3 cells/well were seeded in a 96-well microtiter plates (flat and U bottoms, precoated with agarose 1% for preparing 2- and 3D matrices, respectively) and maintained at 37 °C [48, 54].
The cardiac cultures were exposed or not to increasing concentrations of the nucleoside derivatives (up to 300 µM), and after seven days of incubation, their physiology and morphology was evaluated by light microscopy. Cell viability was measured using the PrestoBlue® (PB) colorimetric assay, the results evaluated as % reduction in cell growth/viability compared to untreated control, and an IC50 value determined. The data results from at least two independent experiments done in at least duplicates.

H9C2 2D cultures = test: Cardiotoxicity on H9C2 monolayers (2D), PrestoBlue; format: cell-based; conditions: Rattus norvegicus, 168 h; 2D H9C2, seven days of compound incubation; 95% confidence interval in brackets; read-out: Cardiotoxic profile IC50 (µM) 2D
From the text: as §3
as §4, with “After seven days of incubation, the cell growth of treated cultures was compared to untreated control cells (100% cell growth).” left out
[…] Cell viability was measured using the PrestoBlue® (PB) colorimetric assay, the results evaluated as % reduction in cell growth/viability compared to untreated control, and an IC50 value determined. The data results from at least two independent experiments done in at least duplicates.

[4] = Leishmania mexicana, read-out: Cas9 EC50 (μM), promastigotes, resazurin-based assay, highest concentration 100 µM

Compound	EC50 [1, 4]	EC50 [2]	EC50 [3]	Lmex^ΔNT1+TcrNT2 Sensitization (fold) [3]	Ki (LmexNT1)	EC50 ([1]; read-out: Cas9 EC50, promastigotes, resazurin-based assay, highest concentration 100 µM)	IC50 (H9C2 3D cultures)	IC50 (H9C2 2D cultures)
Nc1ncnc2c1c(-c1ccccc1)cn2[C@@H]1O[C@H](CO)[C@@H](O)[C@H]1O [TH1004]	37 ± 0.23 µM	138 ± 10 µM	101 ± 0.5 µM	1.37 fold	3.8 ± 0.3 µM			
Nc1ncnc2c1c(-c1ccc(Cl)cc1)cn2[C@@H]1O[C@H](CO)[C@@H](O)[C@H]1O [TH1012]	52.5 ± 0.3 µM	280 ± 18 µM	96.6 ± 0.3 µM	2.9 fold				
Nc1ncnc2c1c(-c1ccc(Cl)c(Cl)c1)cn2[C@@H]1O[C@H](CO)[C@@H](O)[C@H]1O [FH3147, 7-(3,4-dichlorophenyl)tubercidin]	8.4 ± 1.6 µM	> 100 µM	13.7 ± 1.25 µM			8.41 ± 1.61 µM		
Nc1ncnc2c1ccn2[C@@H]1O[C@H](CO)[C@@H](O)[C@H]1O [Tubercidin, reference compound]	1.02 ± 0.16 µM	25.7 ± 0.94 µM			5.8 ± 0.6 µM			
Nc1ncnc2c1c(Cl)cn2[C@@H]1O[C@H](CO)[C@@H](O)[C@H]1O [FH3169]	0.24 ± 0.06 µM	2 ± 0.19 µM	0.32 ± 0.05 µM	6.3 fold	2.8 ± 0.2 µM			
N=C(N)c1ccc(OCCCCCOc2ccc(C(=N)N)cc2)cc1 [Pentamidine, reference compound]	0.87 ± 0.1 µM	1.25 ± 0.22 µM	1.12 ± 0.17 µM	1.11 fold			> 200 µM	46 µM
